Values quoted from earlier work, collected in patent publication US4127541A, “Novel decapeptides, intermediates therefor, and compositions and methods employing said decapeptides” (priority 1977, dated 1978).

Tests used:
[1] = test system: brain opiate receptor sites
[2] = injected directly into the brain of the rat

H-Tyr-Gly-Gly-Phe-Met-OH [methionine enkephalin]
binding to partially purified brain opiate receptor sites [1]: binds stereo-specifically
analgesic activity [2]: weak analgesic agent of short duration
